Measurements published in patent US20130317046A1, “USE OF A DPP-4 INHIBITOR IN AUTOIMMUNE DIABETES, PARTICULARLY LADA” (BOEHRINGER INGELHEIM INTERNATIONAL GMBH, priority 2012, published 2013).
Marks after values point to notes of the source that are not given here.

What was measured:
[1] = 2 h postprandial blood glucose excursions in patients with type 2 diabetes; assay type: in vivo, human; settings: Day 1, doses ≧2.5 mg
[2] = Pharmacokinetics of BI 1356 after multiple oral doses once daily for 12 days in patients with type 2 diabetes; settings: for feT,ss: steady state (Day 12); for feT,ss / fe0-24: gMean; for fe0-24: fraction excreted in urine
β-cell function = assay: Fasting C-peptide (β-cell function) in GAD65+ LADA patients, two year double-blind randomized study linagliptin versus glimepiride on metformin; assay type: in vivo, human; set-up: Follow-up C-peptide / ΔC-peptide / Baseline C-peptide: unit not given here; settings: for Follow-up C-peptide / ΔC-peptide / Baseline C-peptide: fasting, GAD+ patients; for Follow-up C-peptide: 52 weeks; for Follow-up C-peptide / Baseline C-peptide: lina 5 mg/d, glim 1-4 mg/d, on metformin
Method: (§1) β-Cell function in latent autoimmune diabetes in adults (LADA) treated with linagliptin versus glimepiride: exploratory results from a two year double-blind, randomized, controlled study:
(§2) It is compared the impact of treatment with the DPP4-inhibitor linagliptin (lina) 5 mg/d and the sulphonylurea glimepiride (glim) 1-4 mg/d on β-cell function in patients retrospectively identified with LADA who had insufficient glycaemic control despite metformin therapy in a two year study.
(§3) Patients were classified as LADA if one or more of the autoantibodies assessed (GAD65, ICA, IA-2A, IAA) were present at baseline or any on-treatment visit. GAD was assessed using RIA methodology (cut-off 0.05 [sensitivity 82%/specificity 98.89% in the Diabetes Autoantibody Standardization Program 2010]).
(§4) The study cohort comprised 1519 patients (16 countries), with assumed common T2D. The prevalence of LADA was 7.8% (n=118). GAD65 was the most prevalent autoantibody (6.5%) whereas ICA (0.3%), IA-2A (1.2%) and IAA (0.2%) were rare. Proportion of patients with 2 positive antibodies was 0.4%. Baseline characteristics in GAD65+LADA patients treated with lina (n=65) or glim (n=53) were fairly well balanced (respective age 59/63 yrs, BMI 30.3/31.7 kg/m2 and diabetes duration >5 years 62%/59%).
(§5) HbA1c reductions were of similar magnitude in the groups.

[3] = Safety and tolerability in people with type 2 diabetes
[4] = HbA1c in GAD65+ LADA patients, two year double-blind randomized study linagliptin versus glimepiride on metformin; assay type: in vivo, human; settings: GAD+ patients
Method: as §1, §2, §3, §4, §5

[5] = change from baseline at 28 weeks
[6] = change from baseline at 52 weeks
[7] = change from baseline at 104 weeks

With `CC#CCn1c(N2CCC[C@@H](N)C2)nc2c1c(=O)n(Cc1nc(C)c3ccccc3n1)c(=O)n2C` [BI 1356, 1-[(4-methyl-quinazolin-2-yl)methyl]-3-methyl-7-(2-butyn-1-yl)-8-(3-(R)-amino-piperidin-1-yl)-xanthine] as the molecule, how does the “decrease in 2 h postprandial blood glucose excursions” value [1] read?
Its value is 80%.

What about the “feT,ss” value ([2]; 1 mg oral once daily) of the same molecule?
Its value is 3.34%.

What about the fe0-24 ([2]; 2.5 mg oral once daily) of the same molecule?
Its fe0-24 is 0.139%.

And the “feT,ss” value ([2]; 2.5 mg oral once daily)?
Its value is 3.06%.

And the fe0-24 ([2]; 5 mg oral once daily)?
The fe0-24 was 0.453%.

What about the “feT,ss” value ([2]; 5 mg oral once daily) of the same molecule?
The value was 6.27%.

What about the fe0-24 ([2]; 10 mg oral once daily) of the same molecule?
The fe0-24 was 0.919%.

And the “feT,ss” value ([2]; 10 mg oral once daily)?
Its value is 3.22%.

What about the “mean accumulation ratio RA,AUC” value ([2]; doses above 1 mg) of the same molecule?
The value was at most 1.4.

What about the “form and route of excretion” value ([2]; human, in vivo) of the same molecule?
The value was “primarily excreted unchanged via the bile”.

What about the “excreted via the kidney” value ([2]; therapeutic oral dose levels) of the same molecule?
Its value is < 7 % of the administered oral dose.

What about the “main route of excretion” value ([2]; therapeutic oral dose levels) of the same molecule?
The value was “mainly excreted via the liver”.

And the “preservation of C-peptide” value (β-cell function; GAD65+ patients, over a 2 yr trajectory, versus glim)?
The value was “preserved C-peptide significantly better than those treated with glim”.

And the “Follow-up C-peptide” value (β-cell function)?
The value was 978.

And the ΔC-peptide (β-cell function; [5])?
The ΔC-peptide was “+96***##”.

What about the ΔC-peptide (β-cell function; [6]) of the same molecule?
The ΔC-peptide was “+143***##”.

And the ΔC-peptide (β-cell function; [7])?
Its ΔC-peptide is “+202***”.

What about the “Baseline C-peptide” value (β-cell function; subset followed to 28 weeks) of the same molecule?
The value was 821.

What about the “Baseline C-peptide” value (β-cell function; subset followed to 52 weeks) of the same molecule?
Its value is 835.

What about the “Baseline C-peptide” value (β-cell function; subset followed to 104 weeks) of the same molecule?
The value was 944.

What about the safety and tolerability [3] of the same molecule?
Its safety and tolerability is “placebo-like safety and tolerability”.

What about the ΔHbA1c [4, 5] of the same molecule?
The ΔHbA1c was −0.25%.

What about the ΔHbA1c [4, 6] of the same molecule?
Its ΔHbA1c is −0.49%.

And the ΔHbA1c [4, 7]?
The ΔHbA1c was −0.41%.

And the “Baseline HbA1c” value ([4]; subset followed to 28 weeks)?
Its value is 7.62%.

And the “Baseline HbA1c” value ([4]; subset followed to 52 weeks)?
Its value is 7.50%.

And the “Baseline HbA1c” value ([4]; subset followed to 104 weeks)?
The value was 7.40%.

Which results are given for `CCC1=C(C)CN(C(=O)NCCc2ccc(S(=O)(=O)NC(=O)N[C@H]3CC[C@H](C)CC3)cc2)C1=O` [Glim, glimepiride, reference compound]?
Follow-up C-peptide (β-cell function): 1246; ΔC-peptide (β-cell function; [5]): −105; ΔC-peptide (β-cell function; [6]): −179; ΔC-peptide (β-cell function; [7]): −29; Baseline C-peptide (β-cell function; subset followed to 28 weeks): 1326; Baseline C-peptide (β-cell function; subset followed to 52 weeks): 1425; Baseline C-peptide (β-cell function; subset followed to 104 weeks): 1374; ΔHbA1c [4, 5]: −0.75%; ΔHbA1c [4, 6]: −0.52%; ΔHbA1c [4, 7]: −0.49%; Baseline HbA1c ([4]; subset followed to 28 weeks): 7.75%; Baseline HbA1c ([4]; subset followed to 52 weeks): 7.46%; Baseline HbA1c ([4]; subset followed to 104 weeks): 7.40%
